Laboratory results published in article PMC5624297, “Trichoplax adhaerens reveals a network of nuclear receptors sensitive to 9-cis-retinoic acid at the base of metazoan evolution” (PeerJ, 2017).

Molecular target: T1, TaRXR (T. adhaerens RXR; GST-TaRXR) (Trichoplax adhaerens, UniProt A0A290WNL1)
T1 construct: full-length RXR cDNA in pGEX-2T, E. coli BL21 pLysS; N-terminal GST fusion on glutathione beads or thrombin-cleaved; starts MEDRSFK (from printed primer)
T1 sequence (A0A290WNL1 1-345): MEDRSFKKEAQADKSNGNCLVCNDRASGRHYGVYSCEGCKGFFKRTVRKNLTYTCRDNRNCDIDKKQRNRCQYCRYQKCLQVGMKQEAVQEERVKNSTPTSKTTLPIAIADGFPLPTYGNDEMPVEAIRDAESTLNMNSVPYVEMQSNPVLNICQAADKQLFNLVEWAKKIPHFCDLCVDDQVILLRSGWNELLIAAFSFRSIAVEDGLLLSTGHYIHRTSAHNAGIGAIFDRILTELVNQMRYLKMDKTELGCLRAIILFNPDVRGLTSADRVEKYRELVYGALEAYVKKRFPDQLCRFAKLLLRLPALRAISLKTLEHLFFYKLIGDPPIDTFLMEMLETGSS
Assay: radioligand saturation binding (GST-TaRXR on beads) and competition (thrombin-cleaved TaRXR)
Details: labelled compound (3H); 50 mM Tris-HCl pH 7.4, 1 mM EDTA, 120 mM KCl, 5 mM DTT, 8% glycerol, 0.3-0.5% CHAPS; 2 h on ice in dark

CC1=C(/C=C/C(C)=C\C=C\C(C)=C\C(=O)O)C(C)(C)CCC1 [9-cis-retinoic acid]
radioligand saturation binding (GST-TaRXR on beads) and competition (thrombin-cl): TaRXR prepared as thrombin cleaved TaRXR or GST-TaRXR binds 9-cis-RA with high affinity and specificity
